Where two headings read alike, the source gives them in different places.

Common to all, as to format: cell-based
In assay [1] the test system is drug-resistant Escherichia coli II (drug-resistant Escherichia coli 1864). The experiment in a line: Chessboard microbroth dilution MIC/FIC, compound A in combination with meropenem. From the text: (§1) This experiment is designed to determine the minimum inhibitory concentration (MIC) of compound A in combination with meropenem against drug-resistant Escherichia coli I (a strain resistant to carbapenem antibiotics) and drug-resistant Escherichia coli II (a strain resistant to fluoroquinolone antibiotics, non-fluoroquinolone antibiotics, aminoglycoside antibiotics, glycopeptide antibiotics and carbapenem antibiotics), and to calculate the fractional inhibitory concentration (FIC) index.
(§2) 1 strain of drug-resistant Escherichia coli II, namely drug-resistant Escherichia coli 1864, is provided by the School of Pharmacy of Fudan University. This strain is resistant to fluoroquinolone antibiotics (such as levofloxacin), non-fluoroquinolone antibiotics (such as nalidixic acid, nemofloxacin), aminoglycoside antibiotics (such as gentamicin), glycopeptide antibiotics (such as vancomycin) and carbapenem antibiotics (such as meropenem).
(§3) According to the recommendation of the Clinical and Laboratory Standards Institute (CLSI), the microbroth dilution method designed by the chessboard method was used to determine the minimum inhibitory concentration (MIC) of compound A in combination with meropenem against the above strains, and the fractional inhibitory concentration (FIC) index was calculated.
(§4) Compound A was dissolved in dimethyl sulfoxide to obtain a stock solution I with a concentration of 1280 mg/L. The stock solution I was diluted to 512 mg/L with sterile water to obtain a gradient dilution first tube solution I. The gradient dilution first tube solution I was subjected to 1:1 gradient dilution with sterile water to obtain a working solution I with a gradient range of 512 to 0.25 mg/L.
(§5) Meropenem was dissolved in sterile water to obtain a stock solution II with a concentration of 5120 mg/L. The stock solution II was diluted to 1024 mg/L with sterile water to obtain a gradient dilution first tube solution II. The gradient dilution first tube solution II was subjected to 1:1 gradient dilution with sterile water to obtain a working solution II with a gradient range of 1024 to 0.5 mg/L.
(§6) According to the method in Example 1, a drug sensitive plate was prepared with working solution I and working solution II, and the specific process will not be repeated here.
(§7) (2) The culture medium of the bacterial solution: Cation-Adjusted Mueller-Hinton Broth (CAMHB), a product of BBL, USA, batch number 9015952.
(§8) (3) Formulation method of bacterial solution: According to the direct colony suspension method, the test bacteria cultured overnight were prepared into a 0.5 McFarland turbidity tube using physiological saline. Then, the resulting solution was dilute 100 times with the above culture medium. 100 μL of the resulting bacterial solution was mixed well with the solution (100 μL) in each well of the drug sensitivity plate, and the final inoculation amount was 10^5 CFU/mL.
(§9) (4) Culture conditions: Culturing at 35±2° C. for 20 hours in air.
(§10) (1) The experimental results were determined according to the standard of CLSI 2019 M100 29th edition.
(§11) wherein: FIC≤0.5 indicates synergistic effect; 0.5<FIC≤1.0 indicates additive effect; 1<FIC≤2.0 indicates irrelevant effect; and FIC>2 indicates antagonistic effect.

Assay [2] has as its system carbapenem-resistant Acinetobacter baumannii. The assay is described as above. The conditions noted are these: for MIC: Acinetobacter baumannii, read-out: Compound A MIC alone; for Compound A MIC in combination: with meropenem.
Description: This experiment is designed to determine the minimum inhibitory concentration (MIC) of compound A in combination with meropenem against carbapenem-resistant Acinetobacter baumannii and to calculate the fractional inhibitory concentration (FIC) index.
Test bacteria: 10 strains of carbapenem-resistant Acinetobacter baumannii are clinically isolated strains, and are provided by Shanghai Junji Medical Laboratory Co., Ltd.
as §3
Compound A was dissolved in dimethyl sulfoxide to obtain a stock solution I with a concentration of 51200 mg/L. The stock solution I was subjected to 1:1 gradient dilution with dimethyl sulfoxide to obtain a dilution solution with a concentration range of 51200 to 25 mg/L. The corresponding concentrations were added to sterile water for 100-fold dilution to obtain working solution I with a concentration range of 512 to 0.25 mg/L.
Meropenem was dissolved in sterile water to obtain a stock solution with a concentration of 5120 mg/L. The […] stock solution was subjected to 1:1 gradient dilution with sterile water to obtain a working solution II with a concentration range of 512 to 0.25 mg/L.
as §6, §7, §8, §9
(1) The experimental results were determined according to the standard of CLSI 2020 M100 30th edition.
as §11

Assay [3] concerns drug-resistant Escherichia coli I (a strain resistant to carbapenem antibiotics). Described as above. Conditions: for MIC: Escherichia coli, read-out: Compound A MIC alone; for Compound A MIC in combination: with meropenem.
Description: as §1
3 strains of drug-resistant Escherichia coli I, namely drug-resistant Escherichia coli 18-W09-093, drug-resistant Escherichia coli 18-W37-025, and drug-resistant Escherichia coli 18-W37-032, are provided by Shanghai Junji Medical Laboratory Co., Ltd. These 3 strains are all resistant to carbapenem antibiotics (e.g., meropenem).
as §3, §4, §5, §6, §7, §8, §9, §10, §11

The subject of assay [4] is drug-resistant Escherichia coli 1864. The assay is described as follows: MIC of antibiotics against drug-resistant Escherichia coli II (resistance profile of the strain).
Description: as §2

Setting [5] is: strain 1864, compound A + meropenem.
The mark [6] stands for this setting: strain No. 1, compound A + meropenem.
Where [7] appears, read: strain No. 2, compound A + meropenem.
Where [8] appears, read: strain No. 3, compound A + meropenem.
Setting [9] is: strain No. 4, compound A + meropenem.
Where [10] appears, read: strain No. 5, compound A + meropenem.
[11] abbreviates: strain No. 6, compound A + meropenem.
Setting [12] is: strain No. 7, compound A + meropenem.
Where [13] appears, read: strain No. 8, compound A + meropenem.
The mark [14] stands for this setting: strain No. 9, compound A + meropenem.
The mark [15] stands for this setting: strain No. 10, compound A + meropenem.
Setting [16] is: strain 18-W09-093, compound A + meropenem.
[17] abbreviates: strain 18-W37-025, compound A + meropenem.
Setting [18] is: strain 18-W37-032, compound A + meropenem.
Setting [19] is: drug-resistant Escherichia coli 1864, read-out: MIC.

Take `O=[N+]([O-])c1cc(Cl)c2cccnc2c1O` [Compound A, 5-chloro-7-nitro-8-hydroxyquinoline]: the MIC in assay [1] (Escherichia coli, strain 1864, read-out: Compound A MIC alone) was 4 µg/mL; in assay [2] (strain No. 1), 32 µg/mL; in assay [2] (strain No. 2), 16 µg/mL; in assay [2] (strain No. 3), 16 µg/mL; in assay [2] (strain No. 4), 16 µg/mL; in assay [2] (strain No. 5) it was 16 µg/mL. The MIC in assay [2] (strain No. 6) was 16 µg/mL; in assay [2] (strain No. 7) it was 16 µg/mL; in assay [2] (strain No. 8), 8 µg/mL; in assay [2] (strain No. 9) it was 8 µg/mL; in assay [2] (strain No. 10) it was 16 µg/mL; in assay [3] (strain 18-W09-093) it was 32 µg/mL. The MIC in assay [3] (strain 18-W37-025) and in assay [3] (strain 18-W37-032) was 32 µg/mL each time. The “effect of the combination (summary of Table 4)” value in assay [1] (compound A + meropenem, drug-resistant Escherichia coli II) is “synergistic effect (FIC≤0.5 indicates synergistic effect)”; in assay [3] (compound A + meropenem, drug-resistant Escherichia coli I), “synergistic effect (FIC≤0.5 indicates synergistic effect)”. In addition, the FIC index is reported as 0.14 in assay [1] (setting [5]); 0.127 in assay [2] (setting [6]); 0.129 in assay [2] (setting [7]); 0.129 in assay [2] (setting [8]); 0.129 in assay [2] (setting [9]); 0.129 in assay [2] (setting [10]). The FIC index in assay [2] (setting [11]) is given as 0.129; in assay [2] (setting [12]), 0.254; in assay [2] (setting [13]), 0.133; in assay [2] (setting [14]), 0.133; in assay [2] (setting [15]), 0.129; in assay [3] (setting [16]), 0.258. Further, the FIC index in assay [3] (setting [17]) was 0.258; in assay [3] (setting [18]), 0.281. In addition, the Results entry in assay [1] (setting [5]), in assay [2] (setting [6]), in assay [2] (setting [7]), in assay [2] (setting [8]), in assay [2] (setting [9]) and in assay [2] (setting [10]) was “Synergistic” throughout. Besides, the Results result in assay [2] (setting [11]), in assay [2] (setting [12]), in assay [2] (setting [13]), in assay [2] (setting [14]), in assay [2] (setting [15]) and in assay [3] (setting [16]) was “Synergistic” throughout. Also, the Results result in assay [3] (setting [17]) and in assay [3] (setting [18]) was “Synergistic” each time. The “Compound A MIC in combination” value worked out at 0.5 µg/mL in assay [1] (strain 1864, with meropenem); 0.06 µg/mL in assay [2] (strain No. 1); 0.06 µg/mL in assay [2] (strain No. 2); 0.06 µg/mL in assay [2] (strain No. 3); 0.06 µg/mL in assay [2] (strain No. 4); 0.06 µg/mL in assay [2] (strain No. 5). Moreover, the “Compound A MIC in combination” value was determined as 0.06 µg/mL in assay [2] (strain No. 6); 0.06 µg/mL in assay [2] (strain No. 7); 0.06 µg/mL in assay [2] (strain No. 8); 0.06 µg/mL in assay [2] (strain No. 9); 0.06 µg/mL in assay [2] (strain No. 10); 8 µg/mL in assay [3] (strain 18-W09-093). Moreover, the “Compound A MIC in combination” value in assay [3] (strain 18-W37-025) and in assay [3] (strain 18-W37-032) was 8 µg/mL each time. Also, the “change of the MIC of meropenem by the combination” value in assay [2] (compound A + meropenem) is “significantly reduce”; in assay [3] (compound A + meropenem, drug-resistant Escherichia coli I and II), “significantly reduce”. The “effect of the combination (summary of Table 5)” value in assay [2] (compound A + meropenem) is “synergistic effect (FIC≤0.5 indicates synergistic effect)”.

Turning to `C[C@H]1COc2c(N3CCN(C)CC3)c(F)cc3c(=O)c(C(=O)O)cn1c23` [Levofloxacin], in assay [4] (setting [19]), the MIC worked out at 32 µg/mL.

As to `CCn1cc(C(=O)O)c(=O)c2ccc(C)nc21` [Nalidixic acid], the MIC in assay [4] (Escherichia coli) is above 64 µg/mL.

As to `COc1c(N2C[C@@H](C)C[C@H](N)C2)ccc2c(=O)c(C(=O)O)cn(C3CC3)c12` [Nemofloxacin], the MIC in assay [4] (setting [19]) was above 64 µg/mL.

Turning to `CN[C@H](CC(C)C)C(=O)N[C@H]1C(=O)N[C@@H](CC(N)=O)C(=O)N[C@H]2C(=O)N[C@H]3C(=O)N[C@H](C(=O)N[C@H](C(=O)O)c4cc(O)cc(O)c4-c4cc3ccc4O)[C@H](O)c3ccc(c(Cl)c3)Oc3cc2cc(c3O[C@@H]2O[C@H](CO)[C@@H](O)[C@H](O)[C@H]2O[C@H]2C[C@](C)(N)[C@H](O)[C@H](C)O2)Oc2ccc(cc2Cl)[C@H]1O` [Vancomycin], the MIC in assay [4] (Escherichia coli) was above 64 µg/mL.

Take Gentamycin: the MIC in assay [4] (drug-resistant Escherichia coli 1864) was determined as 64 µg/mL.

The values are drawn from US20260240832A1, “USE OF NITROXOLINE COMPOUND IN ENHANCING EFFECT OF ANTIBACTERIAL AGENT” (Jiangsu Yahong Meditech Co., Ltd., priority 2022, published 2026).
